Laboratory results reported in US12252524B2, “GIP/GLP1 co-agonist compounds” (Eli Lilly and Company, priority 2018, dated 2025).
Numbered stars: 1 amine (or outer) side, 2 acyl side, 3 side chain; on linkers, the order of the positions; unused ones are H or OH. Square brackets hold non-standard residues; d marks the D form. Side chains are listed from the residue outwards. Peptide text beside a SMILES is read from it. * marks the point of attachment. C18 diacid = O=C(O)CCCCCCCCCCCCCCCCC(=O)*; γGlu = O=C(O)[C@H](CCC(=O)[*:2])N[*:1]; αMeL = CC(C)C[C@](C)(N)C(=O)O; AEEA = NCCOCCOCC(=O)O; Aib = CC(C)(N)C(=O)O

What was measured:
human GLP-1R [1] = target: T1, human GLP-1R (Homo sapiens, UniProt P43220); assay: GLP-1R CHO cell β-arrestin recruitment assay; assay type: cell-based; design: host or cells: CHO-K1 PathHunter cells, assay-ready frozen; settings: for EC50: CHO-K1 cells, PathHunter β-arrestin-2 recruitment, 0.1% casein, read-out: hGLP1R B-Arrestin2 Rel EC50 uM (SEM, n); for hGLP1R B-Arrestin2 % Top: normalized to GLP-1 maximum control
Method in brief: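 Peptide-induced β-arrestin-2 recruitment measured by enzyme-fragment complementation luminescence after 90 min at 37 °C plus 60 min detection at RT.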

[2] = target: T2, gastric inhibitory peptide receptor (GIPR) (Homo sapiens, UniProt P48546); assay: cAMP pharmacological functional assay in presence of casein, hGIPR; assay type: cell-based; settings: HEK293 cells expressing hGIPR, 0.1% Casein, geometric mean; read-out: hGIPR cAMP Rel EC50 nM (SEM, n)
T2 sequence (P48546 22-466): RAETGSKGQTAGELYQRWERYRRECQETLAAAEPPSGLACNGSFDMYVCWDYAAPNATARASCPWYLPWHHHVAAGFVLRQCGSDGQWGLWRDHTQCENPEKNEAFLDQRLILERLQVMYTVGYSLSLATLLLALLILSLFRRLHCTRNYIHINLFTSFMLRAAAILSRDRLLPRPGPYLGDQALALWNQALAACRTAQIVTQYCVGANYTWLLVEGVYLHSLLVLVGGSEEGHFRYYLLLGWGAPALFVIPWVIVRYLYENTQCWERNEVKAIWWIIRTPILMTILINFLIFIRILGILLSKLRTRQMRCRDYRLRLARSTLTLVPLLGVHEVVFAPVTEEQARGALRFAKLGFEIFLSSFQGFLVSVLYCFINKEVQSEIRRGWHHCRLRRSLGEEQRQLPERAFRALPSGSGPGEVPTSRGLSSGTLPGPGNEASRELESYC

human Gcg receptor = target: T3, human Gcg receptor (Homo sapiens, UniProt P47871); assay: [125I]-Glucagon binding (SPA), human Gcg receptor; settings: read-out: hGLcgR Ki, nM (SEM, n)
T3 construct: expressed in transfected cells; crude membranes
Method in brief: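 Crude membranes from cells expressing the receptor, prepared by hypotonic lysis in 50 mM Tris HCl pH 7.5 with protease inhibitors, homogenization and differential centrifugation, were used in a WGA-bead SPA. Binding buffer: 25 mM HEPES pH 7.4, 2.5 mM CaCl2, 1 mM MgCl2, bacitracin, Tween-20.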

human GLP-1R [3] = target: T1, human GLP-1R; assay: GLP-1R HEK293 cell membrane [35S]GTPγS binding assay; assay type: biochemical; design: expressed in transfected cells; host or cells: HEK293 cells expressing human GLP-1R; membranes; settings: HEK293 cell membranes expressing human GLP-1R, [35S]GTPγS binding; read-out: hGLP1R GTPgS Rel EC50 nM (SEM, n)
Method in brief: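 Agonist-driven Gαs activation read as [35S]GTPγS ([…]) binding to receptor-expressing HEK293 membranes, 30 min at room temperature, pH 7.4. Detection by anti-Gαs immunocapture on scintillation beads; EC50 derived from four-parameter logistic concentration-response fit.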

[4] = target: human GLP-1 receptor (GLP-1R) (Homo sapiens, UniProt P43220); assay: cAMP pharmacological functional assay in presence of casein, hGLP-1R; assay type: cell-based; settings: HEK293 cells expressing hGLP-1R, 0.1% Casein, geometric mean; read-out: hGLP1R cAMP Rel EC50 nM (SEM, n)
Chain of human GLP-1 receptor (GLP-1R) (P43220 24-463): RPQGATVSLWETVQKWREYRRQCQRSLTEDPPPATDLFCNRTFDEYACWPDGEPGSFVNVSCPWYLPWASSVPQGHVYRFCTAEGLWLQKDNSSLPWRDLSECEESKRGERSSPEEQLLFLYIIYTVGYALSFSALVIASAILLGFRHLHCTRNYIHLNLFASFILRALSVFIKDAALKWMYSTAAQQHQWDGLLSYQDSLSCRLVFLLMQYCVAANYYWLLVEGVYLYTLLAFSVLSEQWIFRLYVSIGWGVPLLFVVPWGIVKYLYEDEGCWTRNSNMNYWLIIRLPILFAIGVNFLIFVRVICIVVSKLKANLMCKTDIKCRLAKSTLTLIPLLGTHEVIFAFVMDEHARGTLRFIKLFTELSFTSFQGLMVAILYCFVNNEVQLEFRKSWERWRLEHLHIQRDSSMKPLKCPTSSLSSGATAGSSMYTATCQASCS

T1 sequence (P43220 24-463): as above
T3 sequence (P47871 26-477): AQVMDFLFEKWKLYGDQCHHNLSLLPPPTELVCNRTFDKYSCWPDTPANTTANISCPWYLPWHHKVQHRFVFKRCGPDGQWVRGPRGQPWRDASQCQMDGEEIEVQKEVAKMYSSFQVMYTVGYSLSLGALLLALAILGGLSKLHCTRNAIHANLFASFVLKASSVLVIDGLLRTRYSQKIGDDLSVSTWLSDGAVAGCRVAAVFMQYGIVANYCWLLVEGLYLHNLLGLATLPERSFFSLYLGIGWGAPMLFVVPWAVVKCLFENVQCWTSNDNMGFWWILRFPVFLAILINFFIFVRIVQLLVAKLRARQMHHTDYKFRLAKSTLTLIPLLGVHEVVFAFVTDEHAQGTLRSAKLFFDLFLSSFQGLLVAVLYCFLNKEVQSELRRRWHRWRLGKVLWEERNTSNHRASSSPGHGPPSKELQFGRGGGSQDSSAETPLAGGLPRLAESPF

| Structure (SMILES) | EC50 (human GLP-1R [1]) [µM] | hGLP1R B-Arrestin2 % Top (human GLP-1R [1]) [%] | EC50 [2] [nM] | Ki (human Gcg receptor) [nM] | EC50 (human GLP-1R [3]) [nM] | EC50 [4] [nM] |
| --- | --- | --- | --- | --- | --- | --- |
| CC[C@H](C)[C@H](NC(=O)[C@H](CC(C)C)NC(=O)[C@H](Cc1ccc(O)cc1)NC(=O)[C@H](CCC(=O)O)NC(=O)[C@@H](NC(=O)[C@H](Cc1ccccc1)NC(=O)[C@H](C)NC(=O)C(C)(C)NC(=O)[C@H](CCC(N)=O)NC(=O)[C@H](C)NC(=O)[C@H](CCCCNC(=O)COCCOCCNC(=O)COCCOCCNC(=O)CC[C@H](NC(=O)CCCCCCCCCCCCCCCCC(=O)O)C(=O)O)NC(=O)[C@H](CCC(=O)O)NC(=O)[C@H](CC(=O)O)NC(=O)[C@H](CC(C)C)NC(=O)[C@](C)(CC(C)C)NC(=O)[C@@H](NC(=O)[C@H](CO)NC(=O)[C@H](Cc1ccc(O)cc1)NC(=O)[C@H](CC(=O)O)NC(=O)[C@H](CO)NC(=O)[C@@H](NC(=O)[C@H](Cc1ccccc1)NC(=O)[C@@H](NC(=O)CNC(=O)[C@H](CCC(=O)O)NC(=O)C(C)(C)NC(=O)[C@@H](N)Cc1ccc(O)cc1)[C@@H](C)O)[C@@H](C)O)[C@@H](C)CC)[C@@H](C)CC)C(=O)N[C@@H](CCC(=O)O)C(=O)NCC(=O)NCC(=O)N1CCC[C@H]1C(=O)N[C@@H](CO)C(=O)N[C@@H](CO)C(=O)NCC(N)=O [Example 303] (H-Y[Aib]EGTFTSDYSI[αMeL]LDEK([AEEA-AEEA-γGlu-C18 diacid])AQ[Aib]AFIEYLIEGGPSSG-NH2) | 0.0179 | 47.7 | 0.0254 | 502 | 0.547 | 0.104 |
| CC[C@H](C)[C@H](NC(=O)[C@H](CC(C)C)NC(=O)[C@H](Cc1ccc(O)cc1)NC(=O)[C@H](CCC(=O)O)NC(=O)[C@@H](NC(=O)[C@H](Cc1ccccc1)NC(=O)[C@H](C)NC(=O)C(C)(C)NC(=O)[C@H](CCC(N)=O)NC(=O)[C@H](C)NC(=O)[C@H](CCCCNC(=O)COCCOCCNC(=O)COCCOCCNC(=O)CC[C@H](NC(=O)CCCCCCCCCCCCCCCCC(=O)O)C(=O)O)NC(=O)[C@H](CCCCN)NC(=O)[C@H](CC(=O)O)NC(=O)[C@H](CC(C)C)NC(=O)[C@H](CC(C)C)NC(=O)[C@@H](NC(=O)[C@H](CO)NC(=O)[C@H](Cc1ccc(O)cc1)NC(=O)[C@H](CC(=O)O)NC(=O)[C@H](CO)NC(=O)[C@@H](NC(=O)[C@H](Cc1ccccc1)NC(=O)[C@@H](NC(=O)CNC(=O)[C@H](CCC(=O)O)NC(=O)C(C)(C)NC(=O)[C@@H](N)Cc1ccc(O)cc1)[C@@H](C)O)[C@@H](C)O)[C@@H](C)CC)[C@@H](C)CC)C(=O)N[C@@H](C)C(=O)NCC(=O)NCC(=O)N1CCC[C@H]1C(=O)N[C@@H](CO)C(=O)N[C@@H](CO)C(=O)NCC(=O)N[C@@H](C)C(=O)N1CCC[C@H]1C(=O)N1CCC[C@H]1C(=O)N1CCC[C@H]1C(=O)N[C@@H](CO)C(N)=O [Example 316] (H-Y[Aib]EGTFTSDYSILLDKK([AEEA-AEEA-γGlu-C18 diacid])AQ[Aib]AFIEYLIAGGPSSGAPPPS-NH2) | 0.00608 | 26.1 | 0.024 | 654 | 0.766 | 0.122 |
